In patent US20150018396A1, “PREVENTION AND TREATMENT OF RESPIRATORY INFECTION WITH PEROXISOME PROLIFERATOR ACTIVATOR RECEPTOR DELTA AGONIST” (PRESIDENT AND FELLOWS OF HARVARD COLLEGE, priority 2012, published 2015):
“Also recorded” adds a separate entry of the source.

Columns and labels:
Noxo1 promoter [1] = assay: Noxo1 promoter luciferase reporter in stably transformed wt and Ppar-δ−/− macrophage cell lines; assay type: cell-based, mouse; conditions: Ppar-δ−/− macrophage cell lines vs wt
Protocol: (§1) FIGS. 3a-3c show the transcriptional regulation of macrophage phagosomal function by Ppar-δ. FIGS. 3a and 3b show the expression of genes involved in NADPH oxidase complexes in cultured macrophages and alveolar macrophages, respectively. Gene expression was determined by real-time PCR. […] RAW264.7 macrophages were transfected with a luciferase reporter driven by the 2 kb 5′-regulatory region of the Noxo1 or Nox2 gene. […] Transfection was done in stably transformed wt and Ppar-δ^−/− macrophage cell lines. Data are presented as mean±SEM. *p<0.05.
(§2) To elucidate downstream targets of Ppar-δ mediating phagosomal ROS production, expression of genes involved in this process was analyzed in stably transformed wt and Ppar-δ^−/− macrophages and in alveolar lavage cells from wt and Ppar-δ^mye−/− mice after S. pneumoniae infection. […] To determine whether members of the NADPH complex are transcriptional targets of Ppar-δ, we generated luciferase reporter constructs driven by 2 kb upstream promoters of Noxo1 and Nox2. […] Indeed, we found the expression of Ppar-δ and its known target Slc25a20 increased after bacteria infection (FIG. 7a).
Bone marrow-derived macrophages were differentiated in L929 conditioned media as previously described^14. Stables lines were created from bone marrow of Ppar-δ^mye−/− and control mouse lines using a CreJ2 viral system^35,36. […]

alveolar macrophages = assay: Fc-stimulated phagosomal ROS production ex vivo in isolated alveolar macrophages (FcOxyburst); design: species or system mouse; conditions: wt and Ppar-δ mye−/− mice gavaged for 3 days
Protocol: (§3) Mice were infected with 5×10^5 CFU of S. pneumoniae. […] Twenty-four hours post-infection, lavage fluid was isolated and analyzed for bacterial counts. […] Mice were gavaged with GW501516 for three days. […] Alveolar macrophages were isolated and ROS was determined using FcOxyburst. Data are presented as mean±SEM. *p<0.05.
We next sought to explore the therapeutic potential of the Ppar-δ controlled phagosomal function in pathologies associated with infection. For this purpose, wt mice were infected with a higher dose of S. pneumoniae through nasal inhalation, which led to lethality in 75% of mice within 5 days post-injection (FIG. 5a). […]
Bacterial killing assays were used for in vitro bacterial killing^37,38. […] Colony forming units (CFU) were determined as a measure of bacterial survival. ROS assays were done using FcOxyburst (Invitrogen) according to manufacturers protocols and analyzed by fluorescence activated cell sorting (FACS). Phagocytosis and phagosome number were determined by FACS using Alexa Fluor 647 labeled heat killed S. pneumoniae^32. pH was determined as previously described^32. […] Macrophages were incubated with labeled bacteria and analyzed by FACS for FITC relative to Alexa Fluor 647 signal. ATP and lactate were measured using commercially available kits. […]

S. pneumoniae = assay: Survival in a mouse model of pneumonia (intranasal S. pneumoniae infection); assay type: in vivo; conditions: wt C57BL/6 mice, 2 mg kg^−1 per day by gavage, 5×10^5 CFU S. pneumoniae
Protocol: as §3
We next sought to explore the therapeutic potential of the Ppar-δ controlled phagosomal function in pathologies associated with infection. For this purpose, wt mice were infected with a higher dose of S. pneumoniae through nasal inhalation, which led to lethality in 75% of mice within 5 days post-injection (FIG. 5a). […] Taken together, our data implicate the potential use of synthetic Ppar-δ agonists to improve the outcomes of bacteria infection, such as pneumonia.
Ppar-δ floxed animals were generated as described previously^33,34. Ppar-δ mice were crossed to lysozyme cre mice (Jackson laboratory) to generate Ppar-δ^mye−/− mice. Ppar-δ^fl/fl mice were used as wt controls. All mice were maintained on a C57BL/6 background. Mice used for survival studies in FIG. 5 were C57BL/6 mice purchased from Jackson Laboratory. Bone marrow from CSS-17 mice was provided by Dr. Colleen Croniger (Case Western Reserve University). For in vivo killing assays, mice were anesthetized with a ketamine/xylazine solution and infected intranasally with 10^6 CFU S. pneumoniae. […]

Ppar-δ = assay: Gene expression analyses of Balf cells by real-time PCR; assay type: in vivo, mouse; conditions: mice gavaged for three days
Protocol: as §3
For gene expression analyses, we determined relative expression levels using SYBR Green-based real-time qPCR reactions. We used 36B4 expression levels for normalization. For in vitro analyses of infected macrophages, S. pneumoniae conjugated to magnetic beads were used during infection (see Bacterial Growth and Manipulation for details). Cells were infected for 1 hr with conjugated beads. At the end of the experiment, a magnet was used to separate cells that contained intracellular magnetic bacteria. These cells were used for expression analyses.

Noxo1 promoter [2] = assay: Noxo1 promoter luciferase reporter in RAW macrophages; assay type: cell-based; conditions: RAW267.4 macrophages, luciferase reporter driven by 2 kb 5′-regulatory region, treated 12 hours
Protocol: as §1, §2

Cc1cc(SCc2sc(-c3ccc(C(F)(F)F)cc3)nc2C)ccc1OCC(=O)O [GW501516]
ability to induce Noxo1 promoter activity in cells lacking Ppar-δ (Noxo1 promoter [1]): lost
phagosome ROS production in alveolar macrophages (alveolar macrophages): increased ROS production in a Ppar-δ dependent manner; also recorded: increases phagosome ROS production
onset of death (S. pneumoniae): delayed onset of death
survival compared to vehicle-treated mice (S. pneumoniae; 3 days prior to and every other day after infection): significant improvement in survival
expression of Ppar-δ in Balf cells (Ppar-δ): increase
expression of Ppar-δ target gene Slc25a20 in Balf cells (Ppar-δ): increase
level of Noxa1 mRNA in Balf cells (Ppar-δ): increased
level of Noxo1 mRNA in Balf cells (Ppar-δ): increased
promoter activity of Noxo1 (Noxo1 promoter [2]): increased; also recorded: able to increase activity of the promoter of Noxo1
